Results from patent US20060211651A1, “Persulfated oligosaccharide acting on selectins and chemokine” (Taisho Pharmaceutical Co., Ltd., priority 2002, published 2006).

How the values were obtained:
[1] = biological target: T1, monomeric L-selectin (Homo sapiens, UniProt P14151); experiment: BIAcore surface plasmon resonance, immobilized glycosaminoglycan vs monomeric L-selectin; format: binding; settings: monomeric L-selectin
T1 construct: purchased Genzyme-Techne
T1 sequence (P14151 39-332 limits assumed): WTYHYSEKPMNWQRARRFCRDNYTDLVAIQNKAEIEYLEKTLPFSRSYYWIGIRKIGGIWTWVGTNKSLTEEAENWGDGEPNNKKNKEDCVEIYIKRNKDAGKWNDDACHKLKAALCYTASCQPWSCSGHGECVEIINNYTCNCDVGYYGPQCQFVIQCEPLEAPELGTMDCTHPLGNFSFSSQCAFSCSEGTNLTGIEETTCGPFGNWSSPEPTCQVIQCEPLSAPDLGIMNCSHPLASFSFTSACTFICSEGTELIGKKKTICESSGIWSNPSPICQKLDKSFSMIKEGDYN
Procedure: (§1) Affinity kinetics of the interaction between various CS/DS chains and each of L-selectin, P-selectin, CD44 and chemokine were examined by surface plasmon resonance using BIAcore™ biosensor [manufactured by BIAcore AB].
(§2) All experiments were performed at 25° C. At stages of washing and dissociation, buffer C (20 mM HEPES-NaOH, 0.15M NaCl, 1 mM CaCl2, 1 mM MgCl2, pH6.8) was used as a running buffer.
(§3) First, about 1.8 to 2.0 kiloresonance unit (1 kiloresonance unit=1 ng/mm^2) of streptavidin were covalently immobilized onto B1 sensor chip via a primary amine group using an amine coupling kit [manufactured by Amercham-Bioscience] according to the instruction provided by the manufacturer. The remaining activated groups were blocked with 150 μl of 1M ethanolamine-HCl (pH8.5). Then, each glycosaminoglycan which had been biotinylated at a reducing end was injected to a sensor tip surface by using EZ-link™ biotin-LC-hydrazide [manufactured by Pierce] so as to obtain about 150 resonance unit of an immobilization level, according to the method of Sadir et al. [J. Biol. Chem., 276, 8288-8296 (2001); all teachings of which are hereby incorporated by reference].
(§4) Binding assay was performed by injecting continuously each of various concentrations of secondary lymphoid tissue chemokine, γ-interferon inducible protein-10, stromal cell-derived factor-1β, monomeric L-selectin [manufactured by Genzyme-Techne], monomeric P-selectin [manufactured by Genzyme-Techne] and monomeric CD44, to a glycosaminoglycan-coupled sensor tip at a flow rate of 30 μl/min for 0 to 90 seconds, and then injecting a running buffer thereto. A response in resonance unit was recorded as a function of a time.
(§5) A sensor tip surface was regenerated with 300 μl of 1 M NaCl when chemokine or CD44 was used, or regenerated with 300 μl of 1 M NaCl, and additional 100 μl of 50 mM EDTA (pH8.0), when selectin was used. As a result of regeneration of a sensor tip surface, a remarkable change in a baseline was not observed.
(§6) An affinity kinetic parameter was determined by BIAevaluation 3.0 software [manufactured by Pharmacia Biosensor] using a single site binding model. […] In FIG. 6 and Table 3, SLC denotes secondary lymphoid tissue chemokin, IP-10 denotes γ-interferon inducible protein-10, SDF-1β denotes stromal cell-derived factor-1β, CS E denotes chondroitin sulfate E, and CS A denotes chondroitin sulfate A. In addition, in Table 3, Kd value for the interaction between monomeric CD44 and chondroitin sulfate E is a value calculated from a binding amount at equilibrium, and Kd value of the interaction between CD44 and hyaluronic acid is a value calculated using CD44-Ig.

[2] = biological target: T2, monomeric P-selectin (Homo sapiens, UniProt P16109); experiment: BIAcore surface plasmon resonance, immobilized glycosaminoglycan vs monomeric P-selectin; format: binding; settings: monomeric P-selectin
T2 construct: purchased Genzyme-Techne
T2 sequence (P16109 42-771 limits assumed): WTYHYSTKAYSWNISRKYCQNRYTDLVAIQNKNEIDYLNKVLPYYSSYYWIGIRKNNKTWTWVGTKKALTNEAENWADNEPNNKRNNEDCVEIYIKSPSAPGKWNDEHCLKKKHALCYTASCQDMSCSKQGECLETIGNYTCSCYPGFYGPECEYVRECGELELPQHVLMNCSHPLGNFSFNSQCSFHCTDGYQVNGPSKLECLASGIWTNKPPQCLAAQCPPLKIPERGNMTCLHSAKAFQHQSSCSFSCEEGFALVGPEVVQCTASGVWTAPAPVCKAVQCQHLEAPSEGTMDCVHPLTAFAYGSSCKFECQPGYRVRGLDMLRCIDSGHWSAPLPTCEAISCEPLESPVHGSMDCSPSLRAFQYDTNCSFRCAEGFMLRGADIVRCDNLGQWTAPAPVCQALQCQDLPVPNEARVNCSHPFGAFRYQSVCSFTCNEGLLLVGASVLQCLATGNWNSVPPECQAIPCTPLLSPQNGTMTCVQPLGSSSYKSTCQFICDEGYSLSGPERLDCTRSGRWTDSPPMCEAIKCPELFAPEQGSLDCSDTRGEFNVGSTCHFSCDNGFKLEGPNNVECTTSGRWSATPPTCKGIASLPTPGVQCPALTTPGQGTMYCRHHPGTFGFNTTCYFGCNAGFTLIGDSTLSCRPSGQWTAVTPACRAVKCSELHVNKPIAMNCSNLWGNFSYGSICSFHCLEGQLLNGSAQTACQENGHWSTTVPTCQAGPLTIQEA
Procedure: as §1, §2, §3, §4, §5, §6

[3] = biological target: T3, monomeric CD44 (Homo sapiens, UniProt P16070); experiment: BIAcore surface plasmon resonance, immobilized glycosaminoglycan vs monomeric CD44; format: binding; settings: CD44 monomeric; GAG immobilized; 25° C.
T3 construct: codons of amino acids positions 172 to 178 of human CD44; Myc-His (from vector pcDNA 3.1/Myc-His(+) B) (C); made in house; host or cells: 293T cells, secreted into conditioned medium and purified on anti-CD44 BRIC 235 Sepharose
T3 sequence (P16070 21-178 limits assumed): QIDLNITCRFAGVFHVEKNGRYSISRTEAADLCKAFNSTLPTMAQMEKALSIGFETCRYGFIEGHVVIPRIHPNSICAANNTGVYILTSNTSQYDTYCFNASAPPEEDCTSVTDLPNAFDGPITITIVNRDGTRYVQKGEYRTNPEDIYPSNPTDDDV
Procedure: Human-derived CD44 cDNA was prepared by PCR using a sense primer (SEQ ID NO: 1):
Thereafter, the conditioned medium was subjected to immunoaffinity chromatography with anti-CD44 monoclonal antibody BRIC 235-coupled CNBr-activated Sepharose 4B, to obtain monomeric CD44. The resulting soluble CD44 was subjected to SDS-PAGE and silver staining. As a result, the purity of the resulting soluble CD44 was more than 95%.
as §1, §2, §3, §4, §5, §6

[4] = tested on: secondary lymphoid tissue chemokine; experiment: BIAcore surface plasmon resonance, immobilized glycosaminoglycan vs SLC; format: binding
Procedure: as §1, §2, §3, §4, §5, §6

[5] = biological target: γ-interferon inducible protein-10 (Homo sapiens, UniProt P02778); experiment: BIAcore surface plasmon resonance, immobilized glycosaminoglycan vs IP-10; format: binding
Sequence of γ-interferon inducible protein-10 (P02778 22-98): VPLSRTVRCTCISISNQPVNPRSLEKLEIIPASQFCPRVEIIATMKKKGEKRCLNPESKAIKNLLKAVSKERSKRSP
Procedure: as §1, §2, §3, §4, §5, §6

[6] = biological target: T4, stromal cell-derived factor-1β (Homo sapiens, UniProt P48061); experiment: BIAcore surface plasmon resonance, immobilized glycosaminoglycan vs SDF-1β; format: binding
T4 construct: purchased Pepro Tech
T4 sequence (P48061 22-93): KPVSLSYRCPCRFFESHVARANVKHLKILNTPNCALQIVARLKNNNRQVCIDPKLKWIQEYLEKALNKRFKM
Procedure: as §1, §2, §3, §4, §5, §6

[7] = biological target: T5, L-selectin-Ig (Homo sapiens, UniProt P14151); experiment: Binding inhibition assay (ELISA), biotinylated versican to L-selectin-Ig, various concentrations; settings: dose-dependent, FIG. 2 panel A
T5 construct: purchased R & D Systems Inc
T5 sequence (P14151 with tags, fused parts or gaps limits assumed): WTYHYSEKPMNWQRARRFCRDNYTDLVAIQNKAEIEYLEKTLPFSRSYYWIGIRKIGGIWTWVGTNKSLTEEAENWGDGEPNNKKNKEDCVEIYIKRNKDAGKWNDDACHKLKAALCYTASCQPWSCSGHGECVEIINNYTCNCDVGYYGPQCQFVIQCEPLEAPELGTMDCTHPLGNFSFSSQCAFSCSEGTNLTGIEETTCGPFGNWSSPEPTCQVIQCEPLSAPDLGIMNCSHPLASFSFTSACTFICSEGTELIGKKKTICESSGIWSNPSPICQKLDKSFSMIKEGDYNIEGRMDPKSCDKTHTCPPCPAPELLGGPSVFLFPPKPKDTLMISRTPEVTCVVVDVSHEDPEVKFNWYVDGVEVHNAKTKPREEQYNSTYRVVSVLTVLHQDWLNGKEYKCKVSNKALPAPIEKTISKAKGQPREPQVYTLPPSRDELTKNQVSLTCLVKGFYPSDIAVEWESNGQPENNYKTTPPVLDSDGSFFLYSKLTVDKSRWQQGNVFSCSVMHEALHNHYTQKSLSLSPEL
Procedure: (§7) Inhibition assay of binding between versican and each of L-selectin, P-selectin and CD44 was performed as follows. First, each well on a 96 well flat bottom microtiter plate (Coster EIA/RIA plate No. 3690) was coated with L-selectin-Ig (3 μg/ml), P-selectin-Ig (4 μg/ml) or CD44-Ig (0.25 μg/ml) by a conventional procedure. […] The plate was incubated at room temperature for 2 hours. Thereafter, the plate was washed with the buffer A, and enzyme-linked immunosorbent assay was performed in the same manner as described in Kawashima, H. et al. [J. Biol. Chem., 275, 35448-35456 (2000)]. Binding was determined by measuring absorbance at 620 nm using alkaline phosphatase-conjugated streptavidin and Blue Phos™ substrate.

[8] = tested on: P-selectin-Ig; experiment: Binding inhibition assay (ELISA), biotinylated versican to P-selectin-Ig, various concentrations; settings: dose-dependent, FIG. 2 panel B
Procedure: as §7

[9] = tested on: CD44-Ig; experiment: ELISA, biotinylated versican binding to CD44-Ig in presence of glycosaminoglycan; set-up: species or system human; settings: 100 μg/ml glycosaminoglycan; FIG. 5
Sequence of CD44-Ig (P16070 21-178 limits assumed): as the sequence (P16070 21-178 limits assumed) above
Procedure: A well of a 96 well flat bottom microtiter plate was coated with BSA (5 μg/ml), anti-versican monoclonal antibody 2B1 (5 μg/ml), CD44-Ig (7 μg/ml), L-selectin-Ig (3 μg/ml), P-selectin-Ig (3 μg/ml) or chemokine (1 μg/ml), and then blocked with a phosphate buffered physiological saline containing 3% by weight of BSA. As the above chemokine, secondary lymphoid tissue chemokine, γ-interferon inducible protein-10, platelet factor 4, stromal cell-derived factor-1β [manufactured by Pepro Tech] and stromal cell-derived factor-1α [manufactured by Pepro Tech] were used.
Thereafter, the plate was washed with the buffer A, and enzyme-linked immunosorbent assay was performed in the same manner as that of the previous report [Kawashima, H. et al., J. Biol. Chem., 275, 35448-35456 (2000)]. Binding was determined by measuring absorbance at 620 nm using alkaline phosphatase-conjugated streptavidin and Blue Phos™ substrate. In FIG. 5, expression of an abscissa axis is the same as that of FIG. 4.

[10] = tested on: CD44-Ig; experiment: BIAcore surface plasmon resonance, hyaluronic acid vs CD44-Ig; set-up: species or system human; settings: bivalent analyte binding model
Procedure: Then, using the resulting CD44, human CD44-immunoglobulin (Ig) was prepared according to the method described in Toyama-Sorimachi, N. [J. Biol. Chem., 270, 7437-7444, (1995); all teachings of which are hereby incorporated by reference].
as §1, §2
First, about 1.8 to 2.0 kiloresonance unit (1 kiloresonance unit=1 ng/mm^2) of streptavidin were covalently immobilized onto B1 sensor chip via a primary amine group using an amine coupling kit [manufactured by Amercham-Bioscience] according to the instruction provided by the manufacturer. The remaining activated groups were blocked with 150 μl of 1M ethanolamine-HCl (pH8.5). […]
Binding assay was performed by injecting continuously each of various concentrations of secondary lymphoid tissue chemokine, γ-interferon inducible protein-10, stromal cell-derived factor-1β, monomeric L-selectin [manufactured by Genzyme-Techne], monomeric P-selectin [manufactured by Genzyme-Techne] and monomeric CD44, to a glycosaminoglycan-coupled sensor tip at a flow rate of 30 μl/min for 0 to 90 seconds, and then injecting a running buffer thereto. A response in resonance unit was recorded as a function of a time. […]
In FIG. 6 and Table 3, SLC denotes secondary lymphoid tissue chemokin, IP-10 denotes γ-interferon inducible protein-10, SDF-1β denotes stromal cell-derived factor-1β, CS E denotes chondroitin sulfate E, and CS A denotes chondroitin sulfate A. In addition, in Table 3, Kd value for the interaction between monomeric CD44 and chondroitin sulfate E is a value calculated from a binding amount at equilibrium, and Kd value of the interaction between CD44 and hyaluronic acid is a value calculated using CD44-Ig.

[11] = biological target: T2, monomeric P-selectin; settings: cited from earlier work

**Q.** For chondroitin, which “interaction with immobilized glycosaminoglycan (sensorgram)” value (“interaction” for short) [1] is on record?
**A.** did not interact

**Q.** What about the “interaction” value [2] of the same molecule?
**A.** did not interact

**Q.** What about the Kd [3] of the same molecule?
**A.** 129000 nM

**Q.** And the koff [3]?
**A.** 0.0649 s⁻¹

**Q.** And the kon [3]?
**A.** 503 M⁻¹ s⁻¹

**Q.** And the “interaction” value [4]?
**A.** did not interact

**Q.** And the “interaction” value [5]?
**A.** did not interact

**Q.** And the “interaction” value [6]?
**A.** did not interact

**Q.** What about the “inhibition of binding between biotinylated versican and L-selectin-Ig” value [7] of the same molecule?
**A.** not inhibited

**Q.** And the “inhibition of binding between biotinylated versican and P-selectin-Ig” value [8]?
**A.** not inhibited

**Q.** What about the “inhibition of binding between biotinylated versican and CD44-Ig” value [9] of the same molecule?
**A.** inhibited

**Q.** Which results are given for dermatan sulfate [DS]?
**A.** inhibition of binding between biotinylated versican and L-selectin-Ig [7]: not inhibited; inhibition of binding between biotinylated versican and P-selectin-Ig [8]: not inhibited

**Q.** Which koff ([10]; CD44-Ig) does the source give for hyaluronic acid [HA] here?
**A.** 0.0543 s⁻¹

**Q.** And the kon ([10]; CD44-Ig)?
**A.** 26100 M⁻¹ s⁻¹

**Q.** What about the Kd ([10]; determined using CD44-Ig) of the same molecule?
**A.** 2080 nM

B1: P-selectin glycoprotein ligand-1: known ligand of P-selectin (protein, UniProt Q14242 42-412, looked up)
P-selectin glycoprotein …: QATEYEYLDYDFLPETEPPEMLRNSTDTTPLTGPGTPESTTVEPAARRSTGLDAGGAVTELTTELANMGNLSTDSAAMEIQTTQPAATEAQTTQPVPTEAQTTPLAATEAQTTRLTATEAQTTPLAATEAQTTPPAATEAQTTQPTGLEAQTTAPAAMEAQTTAPAAMEAQTTPPAAMEAQTTQTTAMEAQTTAPEATEAQTTQPTATEAQTTPLAAMEALSTEPSATEALSMEPTTKRGLFIPFSVSSVTHKGIPMAASNLSVNYPVGAPDHISVKQCLLAILILALVATIFFVCTVVLAVRLSRKGHMYPVRNYSPTEMVCISSLLPDGGEGPSATANGGLSKAKSPGLTPEPREDREGDDLTLHSFLP
**Q.** Which Kd [11] does the source give for B1 here?
**A.** ~300 nM

**Q.** And the association rate [11]?
**A.** 4.4e+06 M⁻¹ s⁻¹

**Q.** What about the dissociation rate [11] of the same molecule?
**A.** 1.4 s⁻¹
